Read-outs that look alike come from different tables or passages of the source. *1 amine or outer side, *2 acyl side, *3 side chain or, on linkers, in order; H or OH if unused. Where a SMILES comes first, the peptide text is derived from it. [ ]: non-standard residue; d: D form. Gly(N(CH2)2(3-indolyl)) = O=C(O)CNCCc1c[nH]c2ccccc12; N(2-mercaptoethyl)Gly = O=C(CN(CCS[*:3])[*:1])[*:2]; N(4-hydroxyphenethyl)Gly = O=C(O)CNCCc1ccc(O)cc1; Gly(N-(CH2)3-guanidino) = N=C(N)NCCCNCC(=O)O; NGly(CH2(3-pyridyl)) = O=C(O)CNCc1cccnc1; N(CH2CH2COOH)Gly = O=C(O)CCNCC(=O)O; Gly(N(CH2)3NH2) = NCCCNCC(=O)O; Cysteamide = C(CS[*:3])N[*:1]; X1 = CSCCN(CC(=O)[*:2])[*:1]; Nphe = O=C(O)CNCc1ccccc1; NPrGly = CCCNCC(=O)O; Nme = COCCNCC(=O)O; Sar = CNCC(=O)O
Test system: polyclonal human IgG
Assay: Adsorption isotherm of peptoid affinity resins against polyclonal human IgG
Type: binding
Set-up: Qmax: unit not given here
Conditions: for Qmax: maximum capacity (qmax) of resin from isotherm fit; for Kd: peptoid ligand conjugated to chromatographic resin, IgG in PBS, hyperbola fit of isotherm, Kd given in molar, read-out: Kd x 10^−6
Method: The affinity for the peptoid-resin combinations was determined by measuring the adsorption isotherm of each resin against polyclonal human IgG (Pakimna et al., J Applied Sci., 12(11): 1136-1141, 2012). Briefly, 0.050 mL of 50% resin slurry was pipetted into 6 individual wells of a 96-well filter plate (0.45 micron, PVDF, Harvard Apparatus). The resin was washed with 2×250 μL PBS using a vacuum manifold. To an individual well, 0.25 mL of a human polyclonal IgG solution at different concentrations (10, 5, 2.5, 1.25, 0.625, and 0.3125 mg/mL) was added. The resin/IgG suspension was agitated gently on a rocking table for 30 minutes. The fluid was then collected via vacuum, and the resin was washed with 0.25 mL of PBS. The filtrate and wash were then analyzed by the BCA assay to determine the residual IgG concentration relative to the starting concentration of the solution.
The equilibrium concentrations were then used to determine the capacity of the resin at each IgG concentration using the following formula: q=Volumesample×(Initial Concentration−Equilibrium Concentration)/Volumeresin
A plot of q versus equilibrium concentration was generated and the data fit with a hyperbola to determine the affinity constant (Kd) and the maximum capacity (qmax) according to the below formula, where C=the equilibrium concentration of antibody in solution: q=qmax×C/(kd+C) Typical adsorption isotherm is shown in FIG. 2. Tabulated Kd and qmax data is found in Table 2.

## CCCNCC(=O)N(CCc1c[nH]c2ccccc12)CC(=O)NCC(=O)N(CCCNC(=N)N)CC(=O)N(CCc1c[nH]c2ccccc12)CC(=O)N(CC(=O)NCCS)Cc1cccnc1 [Ligand 12-65-9]
Table 2
  Qmax: 76
  Kd: 9.3 µM

## COCCNCC(=O)N(CCc1c[nH]c2ccccc12)CC(=O)N(CCc1c[nH]c2ccccc12)CC(=O)N(CCCN)CC(=O)N(CC(=O)N(CCC(=O)O)CC(=O)N(C)CC(=O)NCCS)Cc1cccnc1 [Ligand 12-73-2] (H-[Nme][Gly(N(CH2)2(3-indolyl))][Gly(N(CH2)2(3-indolyl))][Gly(N(CH2)3NH2)][NGly(CH2(3-pyridyl))][N(CH2CH2COOH)Gly][Sar]-Cysteamide)
Table 2
  Qmax: 74
  Kd: 2.7 µM

## CCCN(CC(=O)N(CCc1c[nH]c2ccccc12)CC(=O)NCCS)C(=O)CN(CCc1c[nH]c2ccccc12)C(=O)CN(C)C(=O)CN(CCc1c[nH]c2ccccc12)C(=O)CN(Cc1cccnc1)C(=O)CNCCCN [Ligand 12-73-4] (H-[Gly(N(CH2)3NH2)][NGly(CH2(3-pyridyl))][Gly(N(CH2)2(3-indolyl))][Sar][Gly(N(CH2)2(3-indolyl))][NPrGly][Gly(N(CH2)2(3-indolyl))]-Cysteamide)
Table 2
  Qmax: 72
  Kd: 3.9 µM

## CCCN(CC(=O)N(C)CC(=O)N(CCc1c[nH]c2ccccc12)CC(=O)N(CCC)CC(=O)N(CCc1c[nH]c2ccccc12)CC(=O)NCCS)C(=O)CN(CCCNC(=N)N)C(=O)CNCCc1c[nH]c2ccccc12 [Ligand 12-76-3] (H-[Gly(N(CH2)2(3-indolyl))][Gly(N-(CH2)3-guanidino)][NPrGly][Sar][Gly(N(CH2)2(3-indolyl))][NPrGly][Gly(N(CH2)2(3-indolyl))]-Cysteamide)
Table 3
  Qmax: 87
  Kd: 3.2 µM

## CCCN(CC(=O)N(CCc1c[nH]c2ccccc12)CC(=O)NCCS)C(=O)CN(CCc1c[nH]c2ccccc12)C(=O)CN(C)C(=O)CN(CCc1c[nH]c2ccccc12)C(=O)CN(Cc1cccnc1)C(=O)CNCCCNC(=N)N [Ligand 12-76-4] (H-[Gly(N-(CH2)3-guanidino)][NGly(CH2(3-pyridyl))][Gly(N(CH2)2(3-indolyl))][Sar][Gly(N(CH2)2(3-indolyl))][NPrGly][Gly(N(CH2)2(3-indolyl))]-Cysteamide)
Table 2
  Qmax: 89
  Kd: 5.7 µM

## CCCNCC(=O)N(CC(=O)N(CC(=O)N(C)CC(=O)N(CCc1c[nH]c2ccccc12)CC(=O)N(CCC)CC(=O)N(CCc1c[nH]c2ccccc12)CC(=O)NCCS)Cc1ccccc1)Cc1cccnc1 [Ligand 12-79-4] (H-[NPrGly][NGly(CH2(3-pyridyl))][Nphe][Sar][Gly(N(CH2)2(3-indolyl))][NPrGly][Gly(N(CH2)2(3-indolyl))]-Cysteamide)
Table 3
  Qmax: 69
  Kd: 3.6 µM

## CCCN(CC(=O)N(CCc1c[nH]c2ccccc12)CC(=O)NCCS)C(=O)CN(CCc1c[nH]c2ccccc12)C(=O)CN(C)C(=O)CN(CCCNC(=N)N)C(=O)CN(CCOC)C(=O)CNCc1cccnc1 [Ligand 15-28-5] (H-[NGly(CH2(3-pyridyl))][Nme][Gly(N-(CH2)3-guanidino)][Sar][Gly(N(CH2)2(3-indolyl))][NPrGly][Gly(N(CH2)2(3-indolyl))]-Cysteamide)
Table 3
  Qmax: 61
  Kd: 6.1 µM

## CCCN(CC(=O)N(CCc1c[nH]c2ccccc12)CC(=O)NCCS)C(=O)CN(CCc1c[nH]c2ccccc12)C(=O)CN(C)C(=O)CN(Cc1cccnc1)C(=O)CN(CCOC)C(=O)CNCc1cccnc1 [Ligand 15-91-1] (H-[NGly(CH2(3-pyridyl))][Nme][NGly(CH2(3-pyridyl))][Sar][Gly(N(CH2)2(3-indolyl))][NPrGly][Gly(N(CH2)2(3-indolyl))]-Cysteamide)
Table 3
  Qmax: 80
  Kd: 66 µM

## CCCN(CC(=O)N(CCc1c[nH]c2ccccc12)CC(=O)NCCS)C(=O)CN(CCc1c[nH]c2ccccc12)C(=O)CN(C)C(=O)CN(CCC(=O)O)C(=O)CN(Cc1cccnc1)C(=O)CNCCCN [Ligand 15-91-4] (H-[Gly(N(CH2)3NH2)][NGly(CH2(3-pyridyl))][N(CH2CH2COOH)Gly][Sar][Gly(N(CH2)2(3-indolyl))][NPrGly][Gly(N(CH2)2(3-indolyl))]-Cysteamide)
Table 3
  Qmax: 32
  Kd: 6 µM

## CCCN(CC(=O)N(CCc1c[nH]c2ccccc12)CC(=O)NCCS)C(=O)CN(CCc1c[nH]c2ccccc12)C(=O)CN(C)C(=O)CN(Cc1cccnc1)C(=O)CN(CCSC)C(=O)CNCc1cccnc1 [Ligand 16-64-2] (H-[NGly(CH2(3-pyridyl))][N(2-mercaptoethyl)Gly](Me)[NGly(CH2(3-pyridyl))][Sar][Gly(N(CH2)2(3-indolyl))][NPrGly][Gly(N(CH2)2(3-indolyl))]-Cysteamide)
Table 3
  Qmax: 49
  Kd: 5.5 µM

## CSCCN(CC(=O)N(CCCN)CC(=O)N(CC(=O)N(CCC(=O)O)CC(=O)N(C)CC(=O)NCCS)Cc1cccnc1)C(=O)CN(Cc1ccccc1)C(=O)CNCc1cccnc1 [Ligand 16-64-4] (H-[NGly(CH2(3-pyridyl))][Nphe][X1][Gly(N(CH2)3NH2)][NGly(CH2(3-pyridyl))][N(CH2CH2COOH)Gly][Sar]-Cysteamide)
Table 3
  Qmax: 33
  Kd: 28 µM

## CCCN(CC(=O)N(CCCN)CC(=O)N(CC(=O)N(CCC(=O)O)CC(=O)N(C)CC(=O)NCCS)Cc1cccnc1)C(=O)CN(CCC(=O)O)C(=O)CNCc1cccnc1 [Ligand 16-75-1] (H-[NGly(CH2(3-pyridyl))][N(CH2CH2COOH)Gly][NPrGly][Gly(N(CH2)3NH2)][NGly(CH2(3-pyridyl))][N(CH2CH2COOH)Gly][Sar]-Cysteamide)
Table 3
  Qmax: 33
  Kd: 18 µM

## NC(=O)NCCCN(CC(=O)N(CCc1c[nH]c2ccccc12)CC(=O)N(CC(=O)NCCS)Cc1cccnc1)C(=O)CNCCc1c[nH]c2ccccc12 [Ligand 16-75-5]
Table 2
  Qmax: 44
  Kd: 4.3 µM

## NC(=O)NCCCN(CC(=O)N(CCc1c[nH]c2ccccc12)CC(=O)NCCS)C(=O)CN(CCc1c[nH]c2ccccc12)C(=O)CNCc1cccnc1 [Ligand 16-77-1]
Table 2
  Qmax: 61
  Kd: 3.6 µM

## COCCN(CC(=O)NCCS)C(=O)CN(CCc1c[nH]c2ccccc12)C(=O)CN(CCc1c[nH]c2ccccc12)C(=O)CNCCCN [Ligand 16-77-3] (H-[Gly(N(CH2)3NH2)][Gly(N(CH2)2(3-indolyl))][Gly(N(CH2)2(3-indolyl))][Nme]-Cysteamide)
Table 2
  Qmax: 47
  Kd: 4 µM

## COCCNCC(=O)N(CCc1c[nH]c2ccccc12)CC(=O)N(CCc1c[nH]c2ccccc12)CC(=O)N(CCCN)CC(=O)NCCS [Ligand 16-77-4] (H-[Nme][Gly(N(CH2)2(3-indolyl))][Gly(N(CH2)2(3-indolyl))][Gly(N(CH2)3NH2)]-Cysteamide)
Table 2
  Qmax: 44
  Kd: 4.3 µM

## COCCN(CC(=O)N(CCCN)CC(=O)N(CCc1c[nH]c2ccccc12)CC(=O)NCCS)C(=O)CNCc1cccnc1 [Ligand 16-81-6] (H-[NGly(CH2(3-pyridyl))][Nme][Gly(N(CH2)3NH2)][Gly(N(CH2)2(3-indolyl))]-Cysteamide)
Table 3
  Qmax: 45
  Kd: 3.6 µM

## COCCN(CC(=O)N(CC(=O)NCCS)Cc1cccnc1)C(=O)CN(CCCN)C(=O)CNCCc1c[nH]c2ccccc12 [Ligand 16-81-7] (H-[Gly(N(CH2)2(3-indolyl))][Gly(N(CH2)3NH2)][Nme][NGly(CH2(3-pyridyl))]-Cysteamide)
Table 3
  Qmax: 39
  Kd: 4.8 µM

## O=C(CN(CCc1c[nH]c2ccccc12)C(=O)CN(Cc1cccnc1)C(=O)CN(CCc1c[nH]c2ccccc12)C(=O)CNCc1cccnc1)NCCS [Ligand 16-82-2]
Table 3
  Qmax: 41
  Kd: 2.5 µM

## NCCCNCC(=O)N(CC(=O)N(CCc1c[nH]c2ccccc12)CC(=O)N(CCc1c[nH]c2ccccc12)CC(=O)NCCS)Cc1cccnc1 [Ligand 16-82-3] (H-[Gly(N(CH2)3NH2)][NGly(CH2(3-pyridyl))][Gly(N(CH2)2(3-indolyl))][Gly(N(CH2)2(3-indolyl))]-Cysteamide)
Table 2
  Qmax: 47
  Kd: 2.5 µM

## CN(CC(=O)NCCS)C(=O)CN(CCC(=O)O)C(=O)CN(Cc1cccnc1)C(=O)CN(CCCNC(=N)N)C(=O)CN(CCCNC(=N)N)C(=O)CN(CCc1ccc(O)cc1)C(=O)CNCCc1ccc(O)cc1 [Ligand 18-28-1] (H-[N(4-hydroxyphenethyl)Gly][N(4-hydroxyphenethyl)Gly][Gly(N-(CH2)3-guanidino)][Gly(N-(CH2)3-guanidino)][NGly(CH2(3-pyridyl))][N(CH2CH2COOH)Gly][Sar]-Cysteamide)
Table 2
  Qmax: 41
  Kd: 7.7 µM

## CCCN(CC(=O)N(CCc1c[nH]c2ccccc12)CC(=O)NCCS)C(=O)CN(CCc1c[nH]c2ccccc12)C(=O)CN(C)C(=O)CN(Cc1cccnc1)C(=O)CN(CCc1c[nH]c2ccccc12)C(=O)CNCCCNC(=N)N [Ligand 18-28-6] (H-[Gly(N-(CH2)3-guanidino)][Gly(N(CH2)2(3-indolyl))][NGly(CH2(3-pyridyl))][Sar][Gly(N(CH2)2(3-indolyl))][NPrGly][Gly(N(CH2)2(3-indolyl))]-Cysteamide)
Table 2
  Qmax: 42
  Kd: 2.6 µM

Reference: patent US11053281B2, “Peptoid affinity ligands” (MIKE-ANN, LLC, priority 2016, dated 2021)
